Data set [1] relates to Gossypium hirsutum. Put plainly: Phytotoxicity against Gossypium hirsutum (cotton) at 62.5 g/ha by selectivity assay. It is filed as organism-based. Particulars: in vivo.
The subject of data set [2] is Gossypium hirsutum. Put plainly: Phytotoxicity against Gossypium hirsutum (cotton) at 125 g/ha by selectivity assay. The note with it: in vivo. It is filed as organism-based.
Data set [3] has as its system Sida spinosa. Put plainly: Herbicidal activity against Sida spinosa in field soil at 62.5 g/ha measured after 3 days by preemergence herbicidal activity tests. In kind it is functional.
Data set [4] relates to Sida spinosa. Put plainly: Herbicidal activity against Sida spinosa in field soil at 125 g/ha measured after 3 days by preemergence herbicidal activity tests. It is filed as functional.
Data set [5] concerns Ipomoea nil. Put plainly: Herbicidal activity against Ipomoea nil (Japanese morning glory) in field soil at 62.5 g/ha measured after 3 days by pre-emergence herbicidal activity tests. In kind it is functional.
The subject of data set [6] is Ipomoea nil. Put plainly: Herbicidal activity against Ipomoea nil (Japanese morning glory) in field soil at 125 g/ha measured after 3 days by pre-emergence herbicidal activity tests. In kind it is functional.
For data set [7], the system named is Abutilon theophrasti. Put plainly: Herbicidal activity against Abutilon theophrasti (velvetleaf) in field soil at 62.5 g/ha measured after 3 days by preemergence herbicidal activity tests. It is filed as functional.
Data set [8] has as its system Abutilon theophrasti. Put plainly: Herbicidal activity against Abutilon theophrasti (velvetleaf) in field soil at 125 g/ha measured after 3 days by preemergence herbicidal activity tests. In kind it is functional.
In data set [9] the test system is Portulaca oleracea. Put plainly: Herbicidal activity against Portulaca oleracea in field soil at 62.5 g/ha measured after 3 days by preemergence herbicidal activity tests. In kind it is functional.
The test system of data set [10] is Portulaca oleracea. Put plainly: Herbicidal activity against Portulaca oleracea in field soil at 125 g/ha measured after 3 days by preemergence herbicidal activity tests. In kind it is functional.
Data set [11] has as its system Amaranthus viridis. Put plainly: Herbicidal activity against Amaranthus viridis in field soil at 62.5 g/ha measured after 3 days by pre-emergence herbicidal activity tests. It is filed as functional.
Data set [12] concerns Amaranthus viridis. Put plainly: Herbicidal activity against Amaranthus viridis in field soil at 125 g/ha measured after 3 days by pre-emergence herbicidal activity tests. In kind it is functional.
The subject of data set [13] is Sorghum halepense. Put plainly: Herbicidal activity against Sorghum halepense (Johnson grass) in field soil at 62.5 g/ha measured after 3 days by preemergence herbicidal activity tests. In kind it is functional.
In data set [14] the test system is Sorghum halepense. Put plainly: Herbicidal activity against Sorghum halepense (Johnson grass) in field soil at 125 g/ha measured after 3 days by preemergence herbicidal activity tests. In kind it is functional.
Data set [15] concerns Eleusine indica. Put plainly: Herbicidal activity against Eleusine indica in field soil at 62.5 g/ha measured after 3 days by preemergence herbicidal activity tests. In kind it is functional.
The test system of data set [16] is Eleusine indica. Put plainly: Herbicidal activity against Eleusine indica in field soil at 125 g/ha measured after 3 days by preemergence herbicidal activity tests. It is filed as functional.
Data set [17] relates to Echinochloa crus-galli. Put plainly: Herbicidal activity against Echinochloa crus-galli (barnyard grass) in field soil at 62.5 g/ha measured after 3 days by preemergence herbicidal activity tests. In kind it is functional.
Data set [18] deals with Echinochloa crus-galli. Put plainly: Herbicidal activity against Echinochloa crus-galli (barnyard grass) in field soil at 125 g/ha measured after 3 days by preemergence herbicidal activity tests. In kind it is functional.
Data set [19] has as its system Ipomoea nil. Put plainly: Herbicidal activity against Ipomoea nil (Japanese morning glory) in plastic pot assessed as killing at 500 g/ha under greenhouse for 20 days by pre-emergence herbicidal activity tests. It is filed as functional.
The subject of data set [20] is Abutilon theophrasti. Put plainly: Herbicidal activity against Abutilon theophrasti (velvetleaf) in plastic pot assessed as killing at 500 g/ha under greenhouse for 20 days by preemergence herbicidal activity tests. It is filed as functional.
Data set [21] has as its system Echinochloa frumentacea. Put plainly: Herbicidal activity against Echinochloa frumentacea (Japanese millet) in plastic pot assessed as killing at 500 g/ha under greenhouse for 20 days by preemergence herbicidal activity tests. In kind it is functional.

Consider `Cc1cn(-c2cccc(C(F)(F)F)c2)/c(=N/C(=O)C(F)F)s1`, for which the Activity in data set [1] is 0%; in data set [2], 0%; in [3] it was 100%; in [4], 100%; in data set [5] it was 100%; in [6], 100%. For the same molecule, the Activity in [7], in [8], in data set [9], in data set [10], in data set [11] and in data set [12] was 100% each time. The Activity was 90% in data set [13]; 90% in data set [14]; 90% in data set [15]; 90% in data set [16]; 90% in data set [17]; 100% in data set [18]. Also, the Activity in data set [19], in [20] and in [21] was 100% throughout.

Source of the values: ChEMBL document CHEMBL3045322, “Synthesis and herbicidal activity of 2-acylimino-3-phenyl-1,3-thiazolines—A new family of bleaching herbicides—” (J Pestic Sci, 2006).
